Laboratory results reported in US12180187B2, “1-phenyl-5-azinylpyrazolyl-3-oxyalkyl acids and their use for controlling unwanted plant growth” (BAYER AKTIENGESELLSCHAFT, priority 2019, dated 2024).

How the values were obtained:
LOLRI = assay: Pre-emergence action against LOLRI, 1280 g/ha; format: in vivo, Lolium rigidum; settings: visual scoring after about 3 weeks vs untreated controls, 100% = plants have died, 0% = like control plants
Excerpt: (§1) 1. Pre-Emergence Herbicidal Effect and Crop Plant Compatibility a) Seeds of mono- and dicotyledonous weed plants are placed in plastic pots in sandy loam soil (doubly sown with one species each of mono- or dicotyledonous weed plants per pot) and covered with soil. The compounds of the invention, formulated in the form of wettable powders (WP) or as emulsion concentrates (EC), are then applied onto the surface of the covering soil as aqueous suspension or emulsion with addition of 0.5% additive at a water application rate equivalent to 600 litres per hectare. After the treatment, the pots are placed in a greenhouse and kept under good growth conditions for the trial plants. After about 3 weeks, the effect of the preparations is scored visually in comparison with untreated controls as percentages. For example, 100% activity=the plants have died, 0% activity=like control plants. 1. Pre-Emergence Effectiveness Tables 1 to 12 below show the effects of selected compounds of the general formula (I) according to Tables 1 and 2 on various harmful plants and at an application rate corresponding to 1280 g/ha, which were obtained by the experimental procedure mentioned above.

MATIN [1] = assay: Pre-emergence action against MATIN, 1280 g/ha; format: in vivo, Tripleurospermum inodorum (Matricaria inodora); settings: scored visually after about 3 weeks vs untreated controls (100% = plants have died)
Excerpt: as §1

AMARE [2] = assay: Post-emergence action against AMARE, 1.28 kg/ha; format: in vivo, Amaranthus retroflexus; settings: dosage 1280 g/ha, visual rating about 3 weeks after treatment vs untreated controls (100% = plants died)
Method: (§2) • a) Seeds of mono- and dicotyledonous weed plants are placed in plastic pots in sandy loam soil (twin sowing with one species each of mono- or dicotyledonous weed plants per pot), covered with soil and cultivated in a greenhouse under controlled growth conditions. 2 to 3 weeks after sowing, the test plants are treated at the one-leaf stage. The compounds of the invention, formulated in the form of wettable powders (WP) or as emulsion concentrates (EC), are applied to the green parts of the plants as aqueous suspension or emulsion with addition of 0.5% additive at a water application rate equivalent to 600 litres per hectare. After the test plants have been kept in the greenhouse under optimum growth conditions for about 3 weeks, the activity of the preparations is rated visually in comparison to untreated controls. For example, 100% activity=the plants have died, 0% activity=like control plants. As shown by the results, compounds of the general formula (I) of the invention, in post-emergence treatment, have very good herbicidal efficacy (90% to 100% herbicidal action) against harmful plants such as Abutilon theophrasti, Digitaria sanguinalis, Echinochloa crus-galli, Matricaria inodora, Poa annua, at an application rate of 1.28 kg of active substance per hectare.

ALOMY [3] = assay: Pre-emergence action against ALOMY, 1280 g/ha; format: in vivo, Alopecurus myosuroides; settings: visual scoring after about 3 weeks vs untreated controls, 100% = plants have died, 0% = like control plants
Excerpt: as §1

DIGSA [4] = assay: Pre-emergence action against DIGSA, 1280 g/ha; format: in vivo, Digitaria sanguinalis; settings: visual scoring after about 3 weeks vs untreated controls, 100% = plants have died, 0% = like control plants
Excerpt: as §1

VERPE [5] = assay: Pre-emergence action against VERPE, 1280 g/ha; format: in vivo, Veronica persica; settings: scored visually after about 3 weeks vs untreated controls (100% = plants have died)
Excerpt: as §1

AMARE [6] = assay: Pre-emergence action against AMARE, 1280 g/ha; format: in vivo, Amaranthus retroflexus; settings: scored visually after about 3 weeks vs untreated controls (100% = plants have died)
Excerpt: as §1

SETVI = assay: Pre-emergence action against SETVI, 1280 g/ha; format: in vivo, Setaria viridis; settings: visual scoring after about 3 weeks vs untreated controls, 100% = plants have died, 0% = like control plants
Excerpt: as §1

POAAN [7] = assay: Pre-emergence action against POAAN, 1280 g/ha; format: in vivo, Poa annua; settings: visual scoring after about 3 weeks vs untreated controls, 100% = plants have died, 0% = like control plants
Excerpt: as §1

STEME = assay: Pre-emergence action against STEME, 1280 g/ha; format: in vivo, Stellaria media; settings: scored visually after about 3 weeks vs untreated controls (100% = plants have died)
Excerpt: as §1

ALOMY [8] = assay: Post-emergence action against ALOMY, 1.28 kg/ha; format: in vivo, Alopecurus myosuroides; settings: dosage 1280 g/ha, visual rating about 3 weeks after treatment vs untreated controls
Method: as §2

MATIN [9] = assay: Post-emergence action against MATIN, 1.28 kg/ha; format: in vivo, Tripleurospermum inodorum (Matricaria inodora); settings: dosage 1280 g/ha, visual rating about 3 weeks after treatment vs untreated controls (100% = plants died)
Method: as §2

ECHCG = assay: Pre-emergence action against ECHCG, 1280 g/ha; format: in vivo, Echinochloa crus-galli; settings: visual scoring after about 3 weeks vs untreated controls, 100% = plants have died, 0% = like control plants
Excerpt: as §1

POAAN [10] = assay: Post-emergence action against POAAN, 1.28 kg/ha; format: in vivo, Poa annua; settings: dosage 1280 g/ha, visual rating about 3 weeks after treatment vs untreated controls
Method: as §2

VERPE [11] = assay: Post-emergence action against VERPE, 1.28 kg/ha; format: in vivo, Veronica persica; settings: dosage 1280 g/ha, visual rating about 3 weeks after treatment vs untreated controls (100% = plants died)
Method: as §2

DIGSA [12] = assay: Post-emergence action against DIGSA, 1.28 kg/ha; format: in vivo, Digitaria sanguinalis; settings: dosage 1280 g/ha, visual rating about 3 weeks after treatment vs untreated controls
Method: as §2

Structure (SMILES) | Pre-emergence action against MATIN (MATIN [1]) [%] | Post-emergence action against AMARE (AMARE [2]) [%] | Pre-emergence action against DIGSA (DIGSA [4]) [%] | Pre-emergence action against VERPE (VERPE [5]) [%] | Pre-emergence action against AMARE (AMARE [6]) [%] | Pre-emergence action against SETVI (SETVI) [%] | Pre-emergence action against POAAN (POAAN [7]) [%] | Pre-emergence action against STEME (STEME) [%] | Post-emergence action against ALOMY (ALOMY [8]) [%] | Post-emergence action against MATIN (MATIN [9]) [%] | Post-emergence action against VERPE (VERPE [11]) [%] | other results
COC(=O)[C@@H](C)Oc1nn(-c2ccccc2F)c(-c2cnccn2)c1Br [Example I-001] | 90 | 90 | 90 | 100 | 100 | 90 | 100 | 100 | – | – | – | Pre-emergence action against LOLRI (LOLRI): 90%; Pre-emergence action against ALOMY (ALOMY [3]): 90%
O=C(COc1nn(-c2ccccc2F)c(-c2ccc(F)nc2)c1Br)N1CCSC1=O [Example X-011] | 90 | 90 | 100 | 100 | 100 | 100 | 100 | – | 90 | 100 | 90 | Pre-emergence action against ECHCG (ECHCG): 100%; Post-emergence action against POAAN (POAAN [10]): 100%
N#CCCNC(=O)COc1nn(-c2ccccc2F)c(-c2ccc(F)cn2)c1Br [II-005] | – | – | – | – | 90 | – | – | – | – | – | – | –
COC(=O)CNC(=O)COc1nn(-c2ccccc2F)c(-c2ccc(F)cn2)c1Br [II-013] | 90 | – | 100 | 100 | 90 | 100 | 100 | 100 | 90 | 90 | 90 | Pre-emergence action against LOLRI (LOLRI): 100%; Pre-emergence action against ALOMY (ALOMY [3]): 90%; Pre-emergence action against ECHCG (ECHCG): 90%; Post-emergence action against POAAN (POAAN [10]): 90%
O=C(COc1nn(-c2ccc(F)cc2F)c(-c2ccc(F)cn2)c1Br)NO [II-018] | – | 100 | – | – | – | – | – | – | – | 90 | – | –
CCOC(=O)COc1nn(-c2ccccc2F)c(-c2ccnnc2)c1C#N [IV-003, Ethyl {[4-cyano-1-(2-fluorophenyl)-5-(pyridazin-4-yl)-1H-pyrazol-3-yl]oxy}acetate] | – | 90 | – | – | – | – | – | – | 100 | – | – | pest or weed control at 1280 g/ha (MATIN [1]; Tripleurospermum inodorum, 504 h): 90%; pest or weed control at 1280 g/ha (VERPE [5]; Veronica persica, 504 h): 100%; pest or weed control at 1280 g/ha (AMARE [6]; Amaranthus retroflexus, 504 h): 90%; pest or weed control at 1280 g/ha (SETVI; Setaria viridis, 504 h): 100%; pest or weed control at 1280 g/ha (POAAN [7]; Poa annua, 504 h): 90%; pest or weed control at 1280 g/ha (STEME; Stellaria media, 504 h): 100%; pest or weed control at 1280 g/ha (VERPE [11]; Veronica persica, 504 h): 90%
COC(=O)[C@@H](C)Oc1nn(-c2ccccc2F)c(-c2cncnc2)c1Cl [VI-017] | 100 | 90 | – | 100 | 100 | – | 90 | 90 | – | – | – | Pre-emergence action against ALOMY (ALOMY [3]): 90%
COC(=O)C(C)Oc1nn(-c2ccccc2)c(-c2ccc(C)nc2)c1Cl (centres unmarked) [VII-013] | – | – | 90 | 100 | – | – | 100 | – | – | – | 100 | Post-emergence action against DIGSA (DIGSA [12]): 90%
COC(=O)C(C)Oc1nn(-c2ccccc2)c(-c2ccc(Cl)nc2)c1Cl (centres unmarked) [VII-017] | – | – | 90 | 100 | 90 | – | 90 | – | – | – | 100 | Post-emergence action against DIGSA (DIGSA [12]): 90%
CCOC(=O)COc1nn(-c2ccccc2F)c(-c2ccc(F)nc2)c1SC [VII-021] | – | – | – | – | 90 | – | 90 | – | – | – | – | –
COC(=O)COc1nn(-c2ccccc2F)c(-c2ccc(OC)nc2)c1Br [VII-022] | – | – | – | 90 | – | – | – | – | – | – | 90 | –
CSc1c(OCC(=O)O)nn(-c2ccccc2F)c1-c1ccc(F)nc1 [VII-056] | 90 | 100 | 100 | – | 90 | 90 | 90 | 90 | 100 | 100 | 90 | Pre-emergence action against LOLRI (LOLRI): 90%; Post-emergence action against DIGSA (DIGSA [12]): 90%; Post-emergence action against POAAN (POAAN [10]): 100%
CCOC(=O)COc1nn(-c2ccccc2F)c(-c2ccc(OCC)nc2)c1Br [VII-127] | – | – | – | – | – | – | – | 90 | – | – | – | –
CCOC(=O)COc1nn(-c2ccccc2F)c(-c2cnc(F)c(F)c2)c1Br [VII-148] | 90 | 100 | 100 | 90 | 100 | 90 | 100 | 90 | 100 | 100 | – | Pre-emergence action against LOLRI (LOLRI): 90%; Post-emergence action against DIGSA (DIGSA [12]): 100%; Pre-emergence action against ECHCG (ECHCG): 90%; Post-emergence action against POAAN (POAAN [10]): 100%
